Source: article PMC6112376, “Comprehensive Analyses and Prioritization of Tox21 10K Chemicals Affecting Mitochondrial Function by in-Depth Mechanistic Studies” (Environmental Health Perspectives, 2018)
Read-outs that look alike come from different tables or passages of the source.

Experiments:
HepG2 cells [1] = conditions: HepG2 cells, single number from one experiment; for IC50: read-out: MMP assays IC50 (µM) HepG2
rat primary hepatocytes = assay: MMP assay in rat primary hepatocytes; conditions: rat hepatocytes, mean ± SD of three experiments; for IC50: read-out: MMP assays IC50 (µM) Rat Hepatocytes
HepG2 cells [2] = conditions: cited from earlier work; for IC50: read-out: MMP assays IC50 (µM) qHTS-HepG2

Row | SMILES | MMP assays efficacy (%) HepG2 (HepG2 cells [1]) | IC50 (HepG2 cells [1]) | MMP assays efficacy (%) Rat Hepatocytes (rat primary hepatocytes) | IC50 (rat primary hepatocytes) | MMP assays efficacy (%) qHTS-HepG2 (HepG2 cells [2]) | IC50 (HepG2 cells [2]) | MMP assays IC50 (µM) HepG2 (HepG2 cells [1]) | MMP assays IC50 (µM) Rat Hepatocytes (rat primary hepatocytes) | MMP assays IC50 (µM) qHTS-HepG2 (HepG2 cells [2])
1 | CCCCCCCC[n+]1ccn(C)c1.F[B-](F)(F)F [1-Methyl-3-octylimidazolium tetrafluoroborate] | -115% | 19.9 µM | -76±29% | 43.4 ± 7.4 µM | -73±29% | 5.66 ± 5.82 µM |  |  | 
2 | CCCCCCCC[n+]1ccn(C)c1.O=S(=O)([O-])C(F)(F)F [1-Methyl-3-octylimidazolium trifluoromethanesulfonate] | -84% | 15.8 µM | -82±36% | 31.6 µM | -58±19% | 8.38 ± 4.29 µM |  |  | 
3 | O=C(c1ccc(O)c(O)c1)c1ccc(O)cc1O [2,3',4,4'-Tetrahydroxybenzophenone] |  | 8.91 µM | -69±32% | 40.4 ± 8.45 µM | -89±13% | 7.39 ± 7.14 µM |  |  | 
4 | Cl.Cl.Nc1ccc(O)c(N)c1 [2,4-Diaminophenol dihydrochloride] | inactive |  | inactive |  | -58±5% | 3.77 ± 1.06 µM | inactive | inactive | 
5 | COc1cc(Cl)ccc1Cl [2,5-Dichloroanisole] | inactive |  | inactive |  | inactive |  | inactive | inactive | inactive
6 | Oc1ccc(Cc2ccccc2O)cc1 [2-(4-Hydroxybenzyl)phenol] | -87% | 35.5 µM | inactive |  | -89±11% | 27.5 ± 1.92 µM |  | inactive | 
7 | Nc1nc(-c2ccc([N+](=O)[O-])cc2)cs1 [2-Amino-4-(p-nitrophenyl)thiazole] | -54% | 8.91 µM | -53±16% | 20.6 ± 21.1 µM | -59±9% | 3.9 ± 1.78 µM |  |  | 
8 | CCCCCCCCCCCC[n+]1ccc2ccccc2c1.Cc1ccc(S(=O)(=O)[O-])cc1 [2-Dodecylisoquinolinium tosylate] | -110% | 4.35 µM | -95±7% | 4.94 ± 2.78 µM | -83±5% | 3.53 ± 0.5 µM |  |  | 
9 | O=CC=C(c1ccccc1)c1ccccc1 [2-Propenal,3,3-diphenyl-] | -40% | 56.2 µM | -78±36% | 17.1 ± 23.9 µM | -87±29% | 41.2 ± 19.3 µM |  |  | 
10 | O=C(O)Cc1cc(I)c(Oc2cc(I)c(O)c(I)c2)c(I)c1 [3,3',5,5'-Tetraiodothyroacetic acid] | -87% | 39 µM | -110±24% | 26.1 ± 2.13 µM | -87±2% | 45.8 ± 2.99 µM |  |  | 
11 | CC(C)(c1cc(Br)c(O)c(Br)c1)c1cc(Br)c(O)c(Br)c1 [3,3φ,5,5φ-Tetrabromobisphenol A] | -98% | 17.8 µM | -76±30% | 36.9 ± 12.6 µM | -123±2% | 13.2 ± 12.2 µM |  |  | 
12 | CCn1c2ccccc2c2cc(N)ccc21.Cl [3-Amino-9-ethylcarbazole hydrochloride] | -38% | 14.1 µM | -53±23% | 56.2 µM | -93±11% | 35.4 ± 24.5 µM |  |  | 
13 | Nc1ccc(NC(=O)c2ccc(N)cc2)cc1 [4,4'-Diaminobenzanilide] | -93% | 7.08 µM | -86±15% | 33.5 ± 2.73 µM | -100±8% | 3.72 ± 2.85 µM |  |  | 
